Experimental data from ChEMBL document CHEMBL1201862, “PubChem BioAssay data set” (2004).
Each block holds one compound with its values, some of them ahead of it. Calls of active or inactive are those of the source. For most assays here, no stated cut-off is given here; in the data, actives have a measured EC50 and inactives only a lower limit.

Legend:
[1] = Trypanosoma cruzi growth suppression in host cells – NIH3T3 host cells, beta-gal luminescence, confirmation (AID 2044); assay type: functional, cell-based;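 further: intracellular parasites grown in NIH/3T3 mouse fibroblasts as host cells; luminescent beta-galactosidase reporter signal from transgenic T. cruzi replicating inside host cells; inhibitors lower the luminescence signal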
[2] = NIH3T3 cell viability loss – ATP luminescence, mouse fibroblasts, counter-screen, dose response (AID 2010); assay type: functional, cell-based;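 further: cells exposed to compound for about 90 hours before reading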
[3] = Luminescence Cell-Based Dose Retest to Confirm Inhibitors of Cancer Stem Cells. [Related pubchem assays (depositor defined):AID2717, AID2721]; assay type: functional; details: Homo sapiens
[4] = target: T1, Heat shock factor protein 1 (Mus musculus, UniProt P38532); assay: decrease of HSF1-responsive luciferase luminescence – cell-based, NIH3T3, dose retest, confirmation (AID 2382); assay type: functional;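 further: NIH3T3 fibroblasts with HSF1-driven luciferase reporter stressed by proteasome inhibitor MG132; luminescence from HSF1-driven luciferase expression after 8 hours of MG132 stress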
T1 sequence (P38532 whole entry): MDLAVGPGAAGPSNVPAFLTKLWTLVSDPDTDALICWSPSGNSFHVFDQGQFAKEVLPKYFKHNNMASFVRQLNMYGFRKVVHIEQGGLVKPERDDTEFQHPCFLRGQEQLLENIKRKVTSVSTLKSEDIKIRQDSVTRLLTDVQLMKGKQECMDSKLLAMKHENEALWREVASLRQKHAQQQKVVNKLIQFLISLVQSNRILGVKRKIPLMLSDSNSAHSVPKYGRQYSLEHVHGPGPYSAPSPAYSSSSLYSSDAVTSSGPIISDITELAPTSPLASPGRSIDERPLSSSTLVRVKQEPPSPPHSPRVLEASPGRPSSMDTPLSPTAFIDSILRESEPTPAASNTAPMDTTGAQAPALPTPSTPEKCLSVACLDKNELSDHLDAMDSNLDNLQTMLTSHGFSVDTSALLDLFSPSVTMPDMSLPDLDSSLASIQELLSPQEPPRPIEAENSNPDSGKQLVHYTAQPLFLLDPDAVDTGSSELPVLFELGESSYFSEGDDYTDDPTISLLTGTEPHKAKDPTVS

[5] = system: Streptococcus sp. 'group A'; assay: Streptococcus pyogenes SK(-)GAS viability under kanamycin – luminescence, BacTiterGlo, confirmation, counter-screen for streptokinase expression inhibitor project, dose response (AID 1900); assay type: functional, organism-based
Streptococcus = assay: GAS UMAA2166 growth inhibition – luminescence, BacTiterGlo, counter-screen for streptokinase expression inhibitor project, dose response (AID 1915); assay type: functional, organism-based;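 further: potency for reduction of bacterial viability or growth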
[6] = viability of PTEN-deleted HCT116 cells – cell-based, HCT116 PTEN knockout, dose response (AID 1047); assay type: functional;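 further: HCT116 colon tumor cells with PTEN knocked out; cells exposed to compound for 60 hours before readout; potency for loss of cell viability measured by luminescence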
[7] = viability of HCT116 lacking mutant beta-catenin – cell-based, human colon tumor, dose response (AID 1045); assay type: functional;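 further: HCT116 colon tumor cells with beta catenin knocked out; cells exposed to compound for 60 hours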
[8] = target: T2, Corticotropin-releasing factor receptor 2/Corticotropin-releasing factor-binding protein (Homo sapiens, UniProt P24387+Q13324); assay: activators of CRF receptor 2 with binding protein – uHTS hits, confirmation (AID 602473); assay type: functional; details: read-out: EC50_Mean
T2 sequence (Q13324 whole entry): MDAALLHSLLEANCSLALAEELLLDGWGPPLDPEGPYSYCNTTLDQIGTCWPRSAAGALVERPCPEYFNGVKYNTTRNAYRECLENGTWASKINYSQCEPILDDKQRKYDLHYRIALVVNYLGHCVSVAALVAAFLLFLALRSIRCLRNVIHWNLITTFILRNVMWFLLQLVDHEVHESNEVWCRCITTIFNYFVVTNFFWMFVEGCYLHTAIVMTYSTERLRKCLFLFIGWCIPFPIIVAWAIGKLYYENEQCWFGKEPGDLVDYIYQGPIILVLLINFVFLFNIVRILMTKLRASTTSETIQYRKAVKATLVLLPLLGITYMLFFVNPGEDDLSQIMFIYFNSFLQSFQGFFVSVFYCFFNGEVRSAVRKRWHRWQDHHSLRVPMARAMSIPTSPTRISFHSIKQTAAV
T2 sequence (P24387 whole entry): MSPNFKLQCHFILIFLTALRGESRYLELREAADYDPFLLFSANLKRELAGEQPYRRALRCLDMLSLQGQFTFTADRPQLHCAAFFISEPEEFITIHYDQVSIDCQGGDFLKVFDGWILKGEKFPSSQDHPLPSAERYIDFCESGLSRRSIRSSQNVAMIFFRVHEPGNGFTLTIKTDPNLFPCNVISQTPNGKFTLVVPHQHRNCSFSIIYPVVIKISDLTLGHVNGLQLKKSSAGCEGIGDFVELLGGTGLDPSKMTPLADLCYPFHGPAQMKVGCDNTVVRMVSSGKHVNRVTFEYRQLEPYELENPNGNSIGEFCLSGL
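Wherever AC50 is given: cells exposed to compound for roughly 70 hours or longer before luminescence read.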

Structure (SMILES): Cc1ccc(-n2c(SCC(=O)N3c4ccccc4Sc4ccccc43)nnc2-c2ccncc2)cc1
EC50 [1]: 0.345 µM (active)
EC50 [2]: > 60 µM (not active)

Structure (SMILES): CCOC(=O)c1c(NC(=O)c2nn(CC)cc2Br)sc2c1CCCCC2
AC50 [3]: 1.12 µM (active)

EC50 [4]: > 195 µM (not active)
Structure (SMILES): CCN(Cc1ccccc1)C(=O)C1CCN(Cc2sccc2C)CC1

EC50 [4]: 41.2 µM (active)
Structure (SMILES): Nc1ccc(C23CC4CC(CC(O)(C4)C2)C3)cc1

EC50 [4]: > 195 µM (not active)
Structure (SMILES): CCn1c(=O)c2c3c(sc2n2cnnc12)CCC3

Structure (SMILES): O=C(Cc1csc(Nc2nc(S)nc3ccccc23)n1)NCCCN1CCN(c2cccc(Cl)c2)CC1
EC50 [5]: 8.14 µM (active)
EC50 (Streptococcus): > 150 µM (not active)

Structure (SMILES): COc1ccc(C(=O)C2CCCN(C3CSCCSC3)C2)c(OC)c1 (configuration not stated)
AC50 [3]: 0.939 µM (active)

EC50 [4]: > 195 µM (not active)
Structure (SMILES): Cn1c(NC(=O)c2ccccc2NC(=O)C(C)(C)C)nc2ccccc21

Structure (SMILES): Cc1cccc(Oc2cc(NC(=O)Cn3cnc([N+](=O)[O-])n3)cc([N+](=O)[O-])c2)c1
EC50 [6]: 36.1 µM (active)
EC50 [7]: 28.7 µM (active)

Structure (SMILES): CC1CC(C)CN(S(=O)(=O)c2ccc(C(=O)Nc3nnc(C4CC4)o3)cc2)C1 (configuration not stated)
EC50 [5]: 1.25 µM (active)
EC50 (Streptococcus): 5.33 µM (active)

Structure (SMILES): Cc1cc(C)nc(NC(=NC(=O)C(C)(C)C)NCCc2c[nH]c3ccccc23)n1
EC50 [1]: 2.34 µM (active)
EC50 [2]: > 60 µM (not active)

Structure (SMILES): O=C(c1cccc([N+](=O)[O-])c1)N1CCN(c2cccc(Cl)c2)CC1
EC50 [6]: 4.8 µM (active)
EC50 [7]: 5.22 µM (active)

EC50 [4]: > 195 µM (not active)
Structure (SMILES): CCN1CC2([N+](=O)[O-])C=CC(=O)C([N+](=O)[O-])(C1)C2CC(=O)c1ccccc1 (configuration not stated)

Structure (SMILES): CC(NC(=O)c1cccnc1)C(c1cccs1)N1CCOCC1 (configuration not stated)
EC50 [1]: > 60 µM (not active)
EC50 [2]: > 60 µM (not active)

EC50 [4]: 12.4 µM (active)
Structure (SMILES): Cc1nnsc1[S+]([O-])c1ccc(Cl)c(Cl)c1 (configuration not stated)

Structure (SMILES): Cc1cc(Br)c(NC(=O)CN2CC=C(c3ccccc3)CC2)c(Br)c1
EC50 [1]: 0.255 µM (active)
EC50 [2]: > 60 µM (not active)

Structure (SMILES): COc1cc2c(cc1OC)C(c1cc3cccc(C)c3nc1O)N(C(=O)c1ccco1)CC2 (configuration not stated)
EC50 [1]: 3.44 µM (active)
EC50 [2]: 10.5 µM (active)

Structure (SMILES): Cc1cccc(C)c1N=C(S)N(Cc1ccccc1)Cc1cccnc1
EC50 [1]: 1.46 µM (active)
EC50 [2]: > 60 µM (not active)

Structure (SMILES): COc1ccc(C2=NN(CN3C(=O)C(=O)c4ccccc43)C(c3ccc(Br)cc3)C2)cc1 (configuration not stated)
EC50 [6]: 27.3 µM (active)
EC50 [7]: 26.2 µM (active)

EC50 [8]: 5.4 µM (active)
Structure (SMILES): CC1(c2ccc(OC(F)F)cc2)NC(=O)N(CC(=O)c2ccc3c(c2)OCO3)C1=O (configuration not stated)

EC50 [8]: > 53 µM (inactive)
Structure (SMILES): O=C(Nc1cc(C(F)(F)F)ccc1Cl)c1cccnc1

Structure (SMILES): CC1(C)C(=O)N(c2ccccc2)C1c1ccccc1O (configuration not stated)
AC50 [3]: 2.95 µM (active)

EC50 [8]: 2.05 µM (active)
Structure (SMILES): CCCNC(=O)Cn1c(=O)/c(=C/c2ccc(-c3ccc([N+](=O)[O-])cc3)o2)s/c1=C\C(=O)C(C)(C)C

Structure (SMILES): CC1CC1C(=O)N1CCN(S(=O)(=O)c2cc(C(F)(F)F)cc(C(F)(F)F)c2)CC1 (configuration not stated)
AC50 [3]: 2.76 µM (active)

EC50 [8]: > 53 µM (inactive)
Structure (SMILES): CCCCCn1nc(C)c(/C=N\NC(=O)c2cc(C)oc2C)c1C

Structure (SMILES): Cc1cccc(C)c1OCc1cc(C(=O)N2C[C@@H]3C[C@H]4C[C@@H](C3)C[C@@H]2C4)no1
AC50 [3]: 1.27 µM (active)

Structure (SMILES): CCC(O)(CC)C(=O)N/N=C/c1cc(Br)cc(Br)c1O
EC50 [5]: 2.9 µM (active)
EC50 (Streptococcus): 3.08 µM (active)
AC50 [3]: 12.6 µM (active)

Structure (SMILES): O=C(N/N=C/c1cc(Br)cc(Br)c1O)c1cccc(S(=O)(=O)N2CCOCC2)c1
EC50 [5]: 0.765 µM (active)
EC50 (Streptococcus): 3.91 µM (active)

Structure (SMILES): Cc1cccc(C)c1OCc1nc2ccccc2c(=O)n1/N=C/c1c[nH]c2ccccc12
EC50 [1]: 1.14 µM (active)
EC50 [6]: 23.6 µM (active)
EC50 [2]: > 30 µM (not active)
EC50 [7]: 24.7 µM (active)

EC50 [4]: > 195 µM (not active)
Structure (SMILES): Cc1cc(=O)oc2cc(OCC#N)ccc12
